From ChEMBL document CHEMBL1201862, “PubChem BioAssay data set” (2004)
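A five-concentration, 48-hour dose response in 96-well plates underlies each endpoint, interpolated linearly between surrounding concentrations. Abbreviation: GI50, concentration required for 50% inhibition of growth.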 Calls of active or inactive are those of the source. Rule as the data show it: active = GI50 up to about 1.1 µM and inactive = higher.

Experiments:
Experiment in all cases: NCI tumour cell line growth inhibition, 48 h
[1] = test system: T47D
[2] = test system: MDA-MB-231
[3] = test system: NCI-H23
[4] = test system: M14
[5] = test system: HCT-116
[6] = test system: SF-268
[7] = test system: LOX IMVI
[8] = test system: COLO 205
[9] = test system: OVCAR-5
[10] = test system: SF-539
[11] = test system: SK-MEL-2
[12] = test system: SNB-75
[13] = test system: DU-145
[14] = test system: MOLT-4
[15] = test system: SNB-19
[16] = test system: OVCAR-8
[17] = test system: MDA-N
[18] = test system: RXF 393
[19] = test system: K562

Compound	GI50 [1]	GI50 [2]	GI50 [3]	GI50 [4]	GI50 [5]	GI50 [6]	GI50 [7]	GI50 [8]	GI50 [9]	GI50 [10]	GI50 [11]	GI50 [12]	GI50 [13]	GI50 [14]	GI50 [15]	GI50 [16]	GI50 [17]	GI50 [18]	GI50 [19]
O=[N+]([O-])c1ccccc1OCCOc1ccccc1[N+](=O)[O-]	> 100 µM (inactive)	96.2 µM (inactive)	> 100 µM (inactive)	> 100 µM (inactive)	> 100 µM (inactive)	> 100 µM (inactive)	> 100 µM (inactive)	> 100 µM (inactive)	> 100 µM (inactive)	> 100 µM (inactive)	> 100 µM (inactive)	> 100 µM (inactive)	> 100 µM (inactive)	> 100 µM (inactive)	> 100 µM (inactive)	64.6 µM (inactive)	> 100 µM (inactive)	> 100 µM (inactive)	> 100 µM (inactive)
O=[N+]([O-])c1cc2ccc(N(CCO)CCO)nc2nc1N(CCO)CCO	> 100 µM (inactive)	> 100 µM (inactive)	> 100 µM (inactive)	> 100 µM (inactive)	> 100 µM (inactive)	> 100 µM (inactive)	> 100 µM (inactive)	> 100 µM (inactive)	> 100 µM (inactive)	> 100 µM (inactive)	> 100 µM (inactive)	> 100 µM (inactive)	> 100 µM (inactive)	> 100 µM (inactive)	> 100 µM (inactive)	> 100 µM (inactive)	> 100 µM (inactive)	> 100 µM (inactive)	> 100 µM (inactive)
O=[N+]([O-])/C(C(Cl)=C(Cl)Cl)=C(/Cl)Sc1ccccc1	3.03 µM (inactive)	1.86 µM (inactive)	1.77 µM (inactive)	1.82 µM (inactive)	1.31 µM (inactive)	2.29 µM (inactive)	1.87 µM (inactive)	1.23 µM (inactive)	2 µM (inactive)	1.99 µM (inactive)	13.3 µM (inactive)	15 µM (inactive)	3.32 µM (inactive)	0.361 µM (active)	17.7 µM (inactive)	0.255 µM (active)	1.59 µM (inactive)	2.62 µM (inactive)	0.59 µM (active)
CCc1ccccc1NNc1cc(=O)[nH]c(=O)[nH]1	17.9 µM (inactive)	17.5 µM (inactive)	34.8 µM (inactive)	18.5 µM (inactive)	16.7 µM (inactive)	> 10 µM (inactive)	14 µM (inactive)	18 µM (inactive)	22 µM (inactive)	22.6 µM (inactive)	16.6 µM (inactive)	17.7 µM (inactive)	46.2 µM (inactive)	26.7 µM (inactive)	20.3 µM (inactive)	23.4 µM (inactive)	17.9 µM (inactive)	22.2 µM (inactive)	27 µM (inactive)
COc1cc(S(=O)(=O)Nc2nc(-c3ccc(N4C(=O)/C(=C/c5ccccc5)N=C4c4ccccc4)cc3)cs2)ccc1Cl	42.2 µM (inactive)	21.3 µM (inactive)	25.2 µM (inactive)	56.4 µM (inactive)	36.5 µM (inactive)	25 µM (inactive)	34.5 µM (inactive)	40 µM (inactive)	> 100 µM (inactive)	41.1 µM (inactive)	24.6 µM (inactive)	39.6 µM (inactive)	> 100 µM (inactive)	28.2 µM (inactive)	50.6 µM (inactive)	44.4 µM (inactive)	37.3 µM (inactive)	32.1 µM (inactive)	41.6 µM (inactive)
CCC1=CC2Cc3nc4cc(Cl)ccc4c(N)c3C(C1)C2 (stereo unspecified)	2.52 µM (inactive)	5.58 µM (inactive)	5.52 µM (inactive)	1.54 µM (inactive)	2.54 µM (inactive)	4.62 µM (inactive)	4.54 µM (inactive)	2.07 µM (inactive)	5.62 µM (inactive)	9.27 µM (inactive)	5.45 µM (inactive)	6.35 µM (inactive)	11.2 µM (inactive)	0.822 µM (active)	9.12 µM (inactive)	12.8 µM (inactive)	6.08 µM (inactive)	2.65 µM (inactive)	2.58 µM (inactive)
C=C1C(=O)O[C@@H]2C[C@@]3(C)CCCC(=C)[C@@H]3C[C@H]12.C=C1C(=O)O[C@@H]2C[C@@]3(C)CCC[C@H](C)C3=C[C@H]12	1.09 µM (active)	2.38 µM (inactive)	2 µM (inactive)	1.42 µM (inactive)	1.41 µM (inactive)	2.55 µM (inactive)	2.9 µM (inactive)	1.55 µM (inactive)	4.82 µM (inactive)	2.13 µM (inactive)	2.09 µM (inactive)	1.91 µM (inactive)	2.77 µM (inactive)	1.34 µM (inactive)	9.33 µM (inactive)	1.6 µM (inactive)	2.04 µM (inactive)	1.56 µM (inactive)	2.04 µM (inactive)
COc1ccc2oc(=N)c(C(N)=O)cc2c1	32 µM (inactive)	66.8 µM (inactive)	68.2 µM (inactive)	87.3 µM (inactive)	50.9 µM (inactive)	44.3 µM (inactive)	37.4 µM (inactive)	49 µM (inactive)	> 100 µM (inactive)	66.5 µM (inactive)	23.6 µM (inactive)	30.1 µM (inactive)	71.9 µM (inactive)	65.9 µM (inactive)	38.4 µM (inactive)	> 100 µM (inactive)	57.1 µM (inactive)	> 100 µM (inactive)	> 100 µM (inactive)
CC(=O)c1c2c(cc3c1CC1(Cc4ccccc4C1=O)C3)CCC2 (stereo unspecified)	6.87 µM (inactive)	22.3 µM (inactive)	16 µM (inactive)	27.3 µM (inactive)	16.7 µM (inactive)	37.9 µM (inactive)	19.7 µM (inactive)	14.3 µM (inactive)	51.2 µM (inactive)	31.8 µM (inactive)	27.1 µM (inactive)	32 µM (inactive)	34.7 µM (inactive)	10.6 µM (inactive)	45.2 µM (inactive)	18 µM (inactive)	28.6 µM (inactive)	12 µM (inactive)	16.3 µM (inactive)
CC1(C)CN=C(Nc2cccc(C(F)(F)F)c2)S1	> 100 µM (inactive)	0.684 µM (active)	> 100 µM (inactive)	> 100 µM (inactive)	> 100 µM (inactive)	> 100 µM (inactive)	> 100 µM (inactive)	> 100 µM (inactive)	> 100 µM (inactive)	> 100 µM (inactive)	> 100 µM (inactive)	> 100 µM (inactive)	> 100 µM (inactive)	> 100 µM (inactive)	> 100 µM (inactive)	> 100 µM (inactive)	> 100 µM (inactive)	> 100 µM (inactive)	> 100 µM (inactive)
O=C(NCCN1C(=O)CN=C(c2ccc(Cl)cc2)c2cc(Cl)ccc21)OCc1ccccc1	30.8 µM (inactive)	14.8 µM (inactive)	14.1 µM (inactive)	16.4 µM (inactive)	11.9 µM (inactive)	12.4 µM (inactive)	17.4 µM (inactive)	19.8 µM (inactive)	19.2 µM (inactive)	18.9 µM (inactive)	18.1 µM (inactive)	18.1 µM (inactive)	18.2 µM (inactive)	0.255 µM (active)	18.9 µM (inactive)	16.3 µM (inactive)	16.5 µM (inactive)	10.8 µM (inactive)	5.06 µM (inactive)
CC(=O)NC1C(OCc2ccccc2)OC(CO)C(O)C1OC(C)C(=O)NC(C(=O)NC(CCC(=O)Nc1ccc2c(c1)CN1C(=O)c3ccccc3C1=N2)C(N)=O)C(C)C (stereo unspecified)	> 100 µM (inactive)	> 100 µM (inactive)	> 100 µM (inactive)	> 100 µM (inactive)	> 100 µM (inactive)	> 100 µM (inactive)	> 100 µM (inactive)	> 100 µM (inactive)	> 100 µM (inactive)	> 100 µM (inactive)	> 100 µM (inactive)	> 100 µM (inactive)	> 100 µM (inactive)	> 100 µM (inactive)	> 100 µM (inactive)	> 100 µM (inactive)	> 100 µM (inactive)	> 100 µM (inactive)	> 100 µM (inactive)
Nc1nc(OCC2CCCCC2)c2nc[nH]c2n1	6.98 µM (inactive)	25 µM (inactive)	17.7 µM (inactive)	8.73 µM (inactive)	11.4 µM (inactive)	11.2 µM (inactive)	8.75 µM (inactive)	13 µM (inactive)	13.6 µM (inactive)	11.5 µM (inactive)	4.5 µM (inactive)	16.1 µM (inactive)	9.77 µM (inactive)	8.47 µM (inactive)	25.2 µM (inactive)	16.5 µM (inactive)	13.1 µM (inactive)	9.51 µM (inactive)	29.1 µM (inactive)
CN(C)CCOc1ccc2[nH]c(C(=O)N3CC(CCl)c4c3cc([N+](=O)[O-])c3ccccc43)cc2c1 (stereo unspecified)	1.89 µM (inactive)	3.23 µM (inactive)	2.74 µM (inactive)	2.07 µM (inactive)	1.67 µM (inactive)	1.71 µM (inactive)	2.58 µM (inactive)	3.25 µM (inactive)	2.32 µM (inactive)	1.69 µM (inactive)	2.15 µM (inactive)	1.85 µM (inactive)	2.55 µM (inactive)	1.29 µM (inactive)	2.36 µM (inactive)	1.6 µM (inactive)	3.68 µM (inactive)	1.55 µM (inactive)	1.79 µM (inactive)
